Measured values from patent US20100249132A1, “IMIDAZOLE DERIVATIVES” (MERCK PATENT GESELLSCHAFT MIT BESCHRANKTER HAFTUNG, priority 2007, published 2010).

Molecular target: T1, recombinant autotaxin (Homo sapiens, UniProt Q13822)
T1 construct: made in house; host or cells: Hi5 insect cells (baculovirus)
Test: Autotaxin test (enzyme test), Amplex Red fluorescence
Format: biochemical
Conditions: substrate LPC 75 μM, Amplex Red detection, read-out: IC50 (autotaxin inhibition, enzyme test)
Summary of the method: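 Recombinant human autotaxin from baculovirus/Hi5 (16 ng) was preincubated with compound 30 min at 22 °C. Reaction with 75 μM egg LPC ran 90 min at 37 °C. Released choline was coupled via alkaline phosphatase, choline oxidase and HRP to Amplex Red, read as resorufin fluorescence (ex485/em612) in kinetic mode.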

| Compound | IC50 |
| --- | --- |
| CCCCOc1ccc(NC(=O)Nc2[nH]c(Cc3ccc(O)cc3)nc2C(N)=O)cc1 [Compound A95, 5-[3-(4-Butoxyphenyl)ureido]-2-(4-hydroxy-benzyl)-1H-imidazole-4-carboxamides] | > 10 µM |
| CCCCc1ccc(NC(=O)Nc2[nH]c(Cc3ccc(C(=O)N(CC)CC)o3)nc2C(N)=O)cc1 [Compound A78, 5-[3-(4-Butylphenyl)ureido]-2-(5-diethyl-carbamoylfuran-2-ylmethyl)-1H-imidazole-4-carboxamide] | > 10 µM |
| NC(=O)c1nc(-c2ccc(C(=O)O)cc2)[nH]c1NC(=O)Nc1ccc(C(F)(F)F)cc1 [Compound A18, 4-{4-Carbamoyl-5-[3-(4-trifluoromethylphenyl)-ureido]-1H-imidazol-2-yl}benzoic acid] | > 10 µM |
| CCCCc1ccc(NC(=O)Nc2[nH]c(Cc3ccc(C(=O)NC4CCCCC4)o3)nc2C(N)=O)cc1 [Compound A77, 5-[3-(4-Butylphenyl)ureido]-2-(5-cyclohexyl-carbamoylfuran-2-ylmethyl)-1H-imidazole-4-carboxamide] | > 10 µM |
| CCc1ccc(NC(=O)Nc2[nH]c(-c3ccc(C(=O)O)cc3)nc2C(N)=O)cc1 [Compound A19, 4-{4-Carbamoyl-5-[3-(4-ethylphenyl)ureido]-1H-imidazol-2-yl}benzoic acid] | > 10 µM |
| CCc1ccc(NC(=O)Nc2[nH]c(Cc3ccc(C(=O)O)cc3)nc2C(N)=O)cc1 [Compound A7, 4-{4-Carbamoyl-5-[3-(4-ethylphenyl)ureido]-1H imidazol-2-ylmethyl}benzoic acid] | 1 to 10 µM |
| NC(=O)c1nc(Cc2ccc(C(=O)O)cc2)[nH]c1NC(=O)Nc1ccc(C(F)(F)F)cc1 [Compound A15, 4-{4-Carbamoyl-5-[3-(4-tritluoromethylphenyl)-ureido]-1H-imidazol-2-ylmethyl}benzoic acid] | 1 to 10 µM |
| CCCCc1ccc(NC(=O)Nc2[nH]c(Cc3ccc(C(=O)N4CCC(CCO)CC4)o3)nc2C(N)=O)cc1 [Compound A91, 5-[3-(4-Butylphenyl)ureido]-2-{5-[4-(2-hydroxy-ethyl)piperidine-1-carbonyl]furan-2-ylmethyl}-1H-imidazole-4-carboxamide] | 1 to 10 µM |
| Cc1cccc(C)c1NC(=O)Nc1[nH]c(Cc2ccc(C(=O)O)cc2)nc1C(N)=O [Compound A16, 4-{4-Carbamoyl-5-[3-(2,6-dimethylphenyl)-ureido]-1H-imidazol-2-ylmethyl}benzoic acid] | > 10 µM |

More lines, now with the values ahead:

| IC50 | Compound |
| --- | --- |
| > 10 µM | NC(=O)c1nc(-c2ccc(CC(=O)O)cc2)[nH]c1NC(=O)Nc1ccc(Cl)cc1 [Compound A22, (4-{4-Carbamoyl-5-[3-(4-chlorophenyl)ureido]-1H-imidazol-2-yl}phenyl)acetic acid] |
| > 10 µM | CCCCc1ccc(NC(=O)Nc2[nH]c(-c3ccc(OCC(=O)O)cc3)nc2C(N)=O)cc1 [Compound A52, (4-{5-[3-(4-Butylphenyl)ureido]-4-carbamoyl-1H-imidazol-2-yl}phenoxy)acetic acid] |
| > 10 µM | Cc1ccc(NC(=O)Nc2[nH]c(Cc3ccc(C(=O)O)cc3)nc2C(N)=O)cc1 [Compound A5, 4-[4-Carbamoyl-5-(3-p-tolylureido)-1H-imidazol 2-ylmethyl]benzoic acid] |
| 1 to 10 µM | CCCCc1ccc(NC(=O)Nc2[nH]c(Cc3ccc(C(=O)N(C)c4ccccc4)o3)nc2C(N)=O)cc1 [Compound A84, 5-[3-(4-Butylphenyl)ureido]-2-[5-(methylphenyl-carbamoyl)furan-2-ylmethyl]-1H-imidazole-4-carboxamide] |
| > 10 µM | NC(=O)c1nc(Cc2ccc(C(=O)O)o2)[nH]c1NC(=O)Nc1ccc2ccccc2c1 [Compound A33, 5-[4-Carbamoyl-5-(3-naphthalen-2-ylureido)-1H-imidazol-2-ylmethyl]furan-2-carboxylic acid] |
